Results on one compound are retold here after patent US20070031482A1, “PDT treatment method for cellulites and cosmetic use” (CeramOptec Industries, Ind., priority 2005, published 2007).

Series [1] relates to cellulites. In words: PDT treatment of cellulites with Temoporfin solution by Mesotherapy and diode laser (Example 1). Type of series: in vivo, patient. Conditions: 1 session per area, followed by appropriate physiotherapy / complementary session (ultrasound, lymph-drainage, electro-stimulation); evaluation after 30 days. How it is done:
A patient having cellulites is treated with Temoporfin in several sessions. The variables in this treatment program are as follows: • 1.—A determination of the grade of cellulites in the patient. • 2.—A determination of the dose and concentration of Temoporfin and to confirm that it produces an improvement on the cellulites, and to further insure that it is possible to apply it directly by Mesotherapy without the need of systemic introduction. • 3.—A determination as to the potency of Temoporfin based on the time of application to the time of laser application; and • 4.—A determination as to accompanying treatments. In this EXAMPLE, the patient is administered the Temoporfin solution as follows: In all sequences, the treatment consists 1 session only per area to be treated, and, if necessary, it is repeated in 30 days. In general, it was observed that only 1 session followed by appropriate physiotherapy, a complementary session (like ultrasound, lymph-drainage, isotonic and isometric electro-stimulation), was usually sufficient in more than 80% of the patients. If it was necessary to repeat it, an evaluation is done after 30 days. Table 2 presents further information as to the stage of cellulite, concentration of mTHPC (Temoporfin), dose, surface area being treated; strength, power level and time of laser radiation application. [table] […]

The conditions of series [2]: cited from earlier work.
For series [3] the following is noted: without light activation; cited from earlier work.

As for `Oc1cccc(-c2c3nc(c(-c4cccc(O)c4)c4ccc([nH]4)c(-c4cccc(O)c4)c4nc(c(-c5cccc(O)c5)c5ccc2[nH]5)CC4)C=C3)c1` [Temoporfin], in series [1], the “patients in whom only 1 session was usually sufficient” value is listed as “more than 80 % of the patients”. Also, the solubility in triglycerides entry in series [2] is on record as “not soluble in triglycerides”. In series [3], the “effect in the dark” value is “totally innocuous and inactive in the dark”.
